Results on 31 molecules are retold here after ChEMBL document CHEMBL3882729, “Receptor-type kinase modulators and methods of use” (2009).

For assay [1], the target named is Vascular endothelial growth factor receptor 2 (Homo sapiens, UniProt P35968). The assay can be described thus: Inhibition of recombinant human N-terminal GST-fused KDR (D807 to V1356 residues) expressed in baculovirus infected […] insect Sf9 cells using poly-EY as substrate after 240 mins by luciferase coupled chemiluminescence assay.
Vascular endothelial growth factor receptor 2, sequence (P35968 whole entry, the tested form may be a part): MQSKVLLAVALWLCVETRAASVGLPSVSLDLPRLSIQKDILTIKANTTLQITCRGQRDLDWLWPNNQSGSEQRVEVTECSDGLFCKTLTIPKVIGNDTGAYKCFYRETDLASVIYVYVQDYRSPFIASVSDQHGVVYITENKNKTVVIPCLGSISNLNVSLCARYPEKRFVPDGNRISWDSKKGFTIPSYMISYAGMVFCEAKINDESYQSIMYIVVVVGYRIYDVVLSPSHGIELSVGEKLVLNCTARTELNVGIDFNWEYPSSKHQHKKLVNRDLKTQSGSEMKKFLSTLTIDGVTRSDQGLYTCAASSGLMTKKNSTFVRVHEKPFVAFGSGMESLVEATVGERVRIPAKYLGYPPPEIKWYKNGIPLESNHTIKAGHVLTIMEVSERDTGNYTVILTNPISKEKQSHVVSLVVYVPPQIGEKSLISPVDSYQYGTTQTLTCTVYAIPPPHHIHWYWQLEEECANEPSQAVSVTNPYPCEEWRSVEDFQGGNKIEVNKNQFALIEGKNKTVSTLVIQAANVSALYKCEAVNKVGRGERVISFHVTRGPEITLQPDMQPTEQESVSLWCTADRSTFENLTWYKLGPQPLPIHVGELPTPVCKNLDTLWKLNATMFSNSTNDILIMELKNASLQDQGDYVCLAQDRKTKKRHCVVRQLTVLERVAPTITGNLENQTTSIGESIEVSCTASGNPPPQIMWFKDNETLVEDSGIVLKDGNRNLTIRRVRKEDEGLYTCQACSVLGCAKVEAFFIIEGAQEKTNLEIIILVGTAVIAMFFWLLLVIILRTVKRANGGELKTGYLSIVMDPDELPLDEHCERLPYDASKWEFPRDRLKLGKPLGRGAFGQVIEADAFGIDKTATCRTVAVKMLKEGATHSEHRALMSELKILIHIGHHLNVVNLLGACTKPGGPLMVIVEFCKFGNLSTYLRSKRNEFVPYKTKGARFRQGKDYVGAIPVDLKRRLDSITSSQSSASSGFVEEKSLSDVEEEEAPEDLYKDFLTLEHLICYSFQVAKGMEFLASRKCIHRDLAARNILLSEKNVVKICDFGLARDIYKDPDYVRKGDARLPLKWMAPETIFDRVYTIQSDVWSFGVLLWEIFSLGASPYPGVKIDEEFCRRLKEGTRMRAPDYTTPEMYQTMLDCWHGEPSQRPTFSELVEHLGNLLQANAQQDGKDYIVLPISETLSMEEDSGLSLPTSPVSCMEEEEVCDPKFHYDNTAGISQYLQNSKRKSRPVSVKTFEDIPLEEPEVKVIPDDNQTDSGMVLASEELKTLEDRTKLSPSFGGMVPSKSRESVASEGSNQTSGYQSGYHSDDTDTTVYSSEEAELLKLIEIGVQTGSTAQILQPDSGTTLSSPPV
For another assay, the target named is Ephrin type-A receptor 2 (Homo sapiens, UniProt P29317). The assay can be described thus: Inhibition of recombinant human N-terminal His6-tagged EphA2 (N598 to R890 residues) expressed in baculovirus using poly-EY as substrate after 180 mins by luciferase coupled chemiluminescence assay.
Ephrin type-A receptor 2, sequence (P29317 whole entry, the tested form may be a part): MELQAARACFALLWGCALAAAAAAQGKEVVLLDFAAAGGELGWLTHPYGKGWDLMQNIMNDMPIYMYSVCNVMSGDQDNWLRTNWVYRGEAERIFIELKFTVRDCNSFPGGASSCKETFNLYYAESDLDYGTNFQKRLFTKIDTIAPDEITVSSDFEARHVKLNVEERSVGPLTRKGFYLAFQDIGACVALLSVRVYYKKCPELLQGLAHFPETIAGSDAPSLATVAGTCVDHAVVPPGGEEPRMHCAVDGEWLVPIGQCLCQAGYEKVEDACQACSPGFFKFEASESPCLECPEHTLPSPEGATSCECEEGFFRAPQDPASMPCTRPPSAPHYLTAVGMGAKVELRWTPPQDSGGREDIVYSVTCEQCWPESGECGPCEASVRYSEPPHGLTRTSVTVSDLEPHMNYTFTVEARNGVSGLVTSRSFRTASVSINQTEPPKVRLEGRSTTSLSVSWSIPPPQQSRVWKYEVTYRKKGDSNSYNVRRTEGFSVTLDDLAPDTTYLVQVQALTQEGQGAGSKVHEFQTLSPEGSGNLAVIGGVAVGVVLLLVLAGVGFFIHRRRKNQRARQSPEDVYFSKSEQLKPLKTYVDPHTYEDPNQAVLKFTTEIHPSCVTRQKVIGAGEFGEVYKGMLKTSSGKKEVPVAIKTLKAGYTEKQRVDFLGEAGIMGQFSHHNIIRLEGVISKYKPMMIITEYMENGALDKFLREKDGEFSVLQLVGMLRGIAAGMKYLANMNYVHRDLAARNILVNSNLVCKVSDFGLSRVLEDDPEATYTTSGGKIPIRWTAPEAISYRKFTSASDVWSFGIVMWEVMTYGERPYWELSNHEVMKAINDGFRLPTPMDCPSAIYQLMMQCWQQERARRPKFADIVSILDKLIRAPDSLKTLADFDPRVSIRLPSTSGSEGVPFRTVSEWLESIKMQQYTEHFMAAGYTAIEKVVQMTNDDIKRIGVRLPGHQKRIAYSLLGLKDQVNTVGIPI
The target in assay [2] is Receptor tyrosine-protein kinase erbB-2 (Homo sapiens, UniProt P04626). The assay can be described thus: Inhibition of recombinant human N-terminal GST His6-tagged thrombin cleavage site-fused ErbB2 kinase domain (Q679 to V1255 residues) expressed in baculovirus infected insect Sf9 cells using biotinylated poly-EY as substrate after 60 mins by alphascreen assay. On the technique in general: Alpha assays give light when donor and acceptor beads are brought close together.
Receptor tyrosine-protein kinase erbB-2, sequence (P04626 whole entry, the tested form may be a part): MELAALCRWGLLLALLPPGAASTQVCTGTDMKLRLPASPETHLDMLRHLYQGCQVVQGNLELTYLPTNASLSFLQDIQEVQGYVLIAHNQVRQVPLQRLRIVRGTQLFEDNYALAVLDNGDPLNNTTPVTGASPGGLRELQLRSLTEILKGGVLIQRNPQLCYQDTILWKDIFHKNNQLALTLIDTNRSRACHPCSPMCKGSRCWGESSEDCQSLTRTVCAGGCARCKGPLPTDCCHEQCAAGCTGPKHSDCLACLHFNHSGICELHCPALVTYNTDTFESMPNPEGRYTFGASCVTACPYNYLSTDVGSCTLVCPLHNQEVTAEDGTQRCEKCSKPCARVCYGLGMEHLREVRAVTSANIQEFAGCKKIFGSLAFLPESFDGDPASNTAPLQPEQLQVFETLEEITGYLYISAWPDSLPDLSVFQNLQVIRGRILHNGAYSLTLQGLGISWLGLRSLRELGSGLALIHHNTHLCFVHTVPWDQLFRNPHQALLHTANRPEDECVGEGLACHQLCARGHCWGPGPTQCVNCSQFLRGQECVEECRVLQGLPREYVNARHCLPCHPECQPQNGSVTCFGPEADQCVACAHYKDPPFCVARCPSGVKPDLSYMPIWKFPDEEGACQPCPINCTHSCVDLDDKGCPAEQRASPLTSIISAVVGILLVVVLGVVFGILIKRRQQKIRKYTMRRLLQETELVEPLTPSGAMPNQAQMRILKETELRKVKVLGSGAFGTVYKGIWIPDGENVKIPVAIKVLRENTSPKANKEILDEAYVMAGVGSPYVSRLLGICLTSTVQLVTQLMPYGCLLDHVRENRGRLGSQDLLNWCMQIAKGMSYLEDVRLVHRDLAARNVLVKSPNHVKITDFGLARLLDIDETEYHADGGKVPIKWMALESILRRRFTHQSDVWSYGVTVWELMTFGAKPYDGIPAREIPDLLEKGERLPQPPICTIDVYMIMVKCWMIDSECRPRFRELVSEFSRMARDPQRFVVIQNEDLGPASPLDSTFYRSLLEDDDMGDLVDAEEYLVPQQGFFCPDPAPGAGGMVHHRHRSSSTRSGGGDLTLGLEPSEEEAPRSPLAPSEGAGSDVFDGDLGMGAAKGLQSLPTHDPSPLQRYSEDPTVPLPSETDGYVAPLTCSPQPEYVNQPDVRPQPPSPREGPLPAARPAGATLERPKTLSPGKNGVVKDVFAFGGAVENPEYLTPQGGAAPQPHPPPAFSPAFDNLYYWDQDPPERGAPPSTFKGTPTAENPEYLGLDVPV

The target of a further assay is T1, Ephrin type-B receptor 4 (Homo sapiens, UniProt P54760).
T1 sequence (P54760 whole entry): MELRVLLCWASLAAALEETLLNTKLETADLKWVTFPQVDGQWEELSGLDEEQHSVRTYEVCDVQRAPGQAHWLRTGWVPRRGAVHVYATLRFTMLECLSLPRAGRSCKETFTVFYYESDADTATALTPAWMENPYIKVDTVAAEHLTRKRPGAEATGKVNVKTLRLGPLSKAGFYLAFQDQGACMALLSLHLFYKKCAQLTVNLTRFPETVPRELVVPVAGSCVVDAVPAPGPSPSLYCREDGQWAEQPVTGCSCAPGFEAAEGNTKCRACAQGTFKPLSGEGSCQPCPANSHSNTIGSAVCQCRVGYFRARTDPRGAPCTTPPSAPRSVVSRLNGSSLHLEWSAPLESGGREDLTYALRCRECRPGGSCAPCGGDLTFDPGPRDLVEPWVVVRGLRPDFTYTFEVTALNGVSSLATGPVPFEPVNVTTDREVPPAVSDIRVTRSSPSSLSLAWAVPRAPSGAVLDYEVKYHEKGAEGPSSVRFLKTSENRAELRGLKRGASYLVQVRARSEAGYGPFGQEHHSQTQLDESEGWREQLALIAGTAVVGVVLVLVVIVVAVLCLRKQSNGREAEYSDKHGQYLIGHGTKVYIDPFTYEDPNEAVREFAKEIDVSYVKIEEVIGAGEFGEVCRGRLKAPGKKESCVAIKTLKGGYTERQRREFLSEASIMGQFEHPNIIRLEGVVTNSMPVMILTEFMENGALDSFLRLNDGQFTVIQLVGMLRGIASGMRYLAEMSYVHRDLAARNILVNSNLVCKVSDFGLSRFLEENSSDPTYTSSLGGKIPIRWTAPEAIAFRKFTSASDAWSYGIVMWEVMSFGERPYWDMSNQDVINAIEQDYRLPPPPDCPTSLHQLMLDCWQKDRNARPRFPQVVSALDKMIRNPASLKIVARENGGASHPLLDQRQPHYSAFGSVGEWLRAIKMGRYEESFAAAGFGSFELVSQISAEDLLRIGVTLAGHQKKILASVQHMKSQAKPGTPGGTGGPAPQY
The assay can be described thus: Inhibition of recombinant human N-terminal His6-tagged EphB4 kinase domain (E605 to E890 residues) expressed in baculovirus using poly-AEKY as substrate after 150 mins in presence of gamma33P-ATP by liquid scintillation spectrometry.

What is called IC50 is the midpoint of a concentration-inhibition curve. For `COc1cc2c(Nc3ccc(C)c(Cl)c3Cl)ncnc2cc1OCC1CN(C)CCO1` (centres undefined), the IC50 in assay [1] was less than 50 nM; on Ephrin type-A receptor 2, 50 to 1000 nM; in assay [2] it was 1000 to 20000 nM; on Ephrin type-B receptor 4, 50 to 1000 nM.

On to `COc1cc2c(Nc3ccc(Cl)c(Cl)c3)ncnc2cc1OCC1CN(C)C(C)(C)C(=O)O1` (centres undefined), for which the IC50 in assay [1] is 50 to 1000 nM; at Ephrin type-A receptor 2, 50 to 1000 nM; in assay [2], 50 to 1000 nM; at Ephrin type-B receptor 4, less than 50 nM.

Turning to `CN/C(=N\C#N)N1CCOC(COc2cc3ncnc(Nc4ccc(Cl)c(C)c4)c3cc2OC)C1` (centres undefined), the IC50 in assay [1] was 50 to 1000 nM; at Ephrin type-A receptor 2, 50 to 1000 nM; in assay [2], less than 50 nM; at Ephrin type-B receptor 4, less than 50 nM.

As to `COc1cc2c(Nc3ccc(Cl)c(Cl)c3F)ncnc2cc1OCC1CN(C)CCO1` (centres undefined), the IC50 (in assay [1]; at Ephrin type-A receptor 2; in assay [2]; on Ephrin type-B receptor 4) was less than 50 nM each time.

On to `COc1cc2c(Nc3ccc(F)c(Cl)c3F)ncnc2cc1OCC1CN(C)CCO1` (centres undefined), for which the IC50 (in assay [1]; at Ephrin type-A receptor 2; in assay [2]; at Ephrin type-B receptor 4) was less than 50 nM each time.

On to `COc1cc2c(Nc3ccc(Cl)c(Cl)c3)ncnc2cc1OCC1CN(C)C(C)(C)CO1` (centres undefined), for which the IC50 in assay [1] was less than 50 nM; at Ephrin type-A receptor 2, 50 to 1000 nM; in assay [2], less than 50 nM; at Ephrin type-B receptor 4, less than 50 nM.

Take `COc1cc2c(Nc3ccc(Cl)c(Cl)c3)ncnc2cc1OCCC1CN(C(=O)OC(C)(C)C)C(C)(C)CO1` (centres undefined): the IC50 (in assay [1]; at Ephrin type-A receptor 2; in assay [2]; at Ephrin type-B receptor 4) was 1000 to 20000 nM throughout.

Turning to `COc1cc2c(Nc3ccc(Cl)c(Cl)c3)ncnc2cc1OCC1CN(C(=O)C2CCCC2)CCO1` (centres undefined), the IC50 is 50 to 1000 nM in assay [1], 50 to 1000 nM on Ephrin type-A receptor 2, less than 50 nM in assay [2] and less than 50 nM at Ephrin type-B receptor 4.

Take `COc1cc2c(Nc3ccc(Cl)c(Cl)c3C)ncnc2cc1OCC1CN(C)CCO1` (centres undefined): the half-maximal inhibitory concentration (IC50) in assay [1] was 50 to 1000 nM; at Ephrin type-A receptor 2, 50 to 1000 nM; in assay [2], 1000 to 20000 nM; at Ephrin type-B receptor 4, less than 50 nM.

`COc1cc2c(Nc3ccc(Br)c(Cl)c3F)ncnc2cc1OCC1CN(C)CCO1` (centres undefined): the IC50 (in assay [1]; at Ephrin type-A receptor 2; in assay [2]; at Ephrin type-B receptor 4) was less than 50 nM each time.

Turning to `COc1cc2c(Nc3ccc(Cl)c(Cl)c3)ncnc2cc1OCC1CN(S(=O)(=O)CCCCl)CCO1` (centres undefined), the IC50 in assay [1] was 50 to 1000 nM; on Ephrin type-A receptor 2 it was 50 to 1000 nM; in assay [2], 50 to 1000 nM; on Ephrin type-B receptor 4 it was less than 50 nM.

Take `COc1cc2c(Nc3ccc(Br)c(Cl)c3C)ncnc2cc1OCC1CN(C)CCO1` (centres undefined): the concentration for half-maximal inhibition (IC50) (in assay [1]; on Ephrin type-A receptor 2; in assay [2]; on Ephrin type-B receptor 4) was 50 to 1000 nM each time.

Take `COc1cc2c(Nc3ccc(Br)c(C)c3)ncnc2cc1OCC1CN(C)CCO1` (centres undefined): the half-maximal inhibitory concentration (IC50) (in assay [1]; at Ephrin type-A receptor 2; in assay [2]; on Ephrin type-B receptor 4) was 50 to 1000 nM each time.

With `CC(C)Oc1cc2c(Nc3ccc(Cl)c(Cl)c3)ncnc2cc1OCC1CN(C)CCO1` (centres undefined), the 50% inhibitory concentration (IC50) (in assay [1]; on Ephrin type-A receptor 2; in assay [2]; at Ephrin type-B receptor 4) was less than 50 nM in each case.

On to `COc1cc2c(Nc3ccc(Cl)c(Cl)c3)ncnc2cc1OCCC1CN(C)CC(C)(C)O1` (centres undefined), for which the half-maximal inhibitory concentration (IC50) in assay [1] lay in the range of 50 to 1000 nM; on Ephrin type-A receptor 2, 1000 to 20000 nM; in assay [2], 50 to 1000 nM; at Ephrin type-B receptor 4 it was 50 to 1000 nM.

Regarding `CCOc1cc2c(Nc3ccc(Cl)c(Cl)c3)ncnc2cc1OCC1CN(C)CCO1` (centres undefined), the half-inhibitory concentration (IC50) (in assay [1]; on Ephrin type-A receptor 2; in assay [2]; at Ephrin type-B receptor 4) was less than 50 nM each time.

With `COc1cc2c(Nc3ccc(Br)c(F)c3F)ncnc2cc1OCC1CN(C)CCO1` (centres undefined), the IC50 in assay [1] was less than 50 nM; at Ephrin type-A receptor 2 it was 50 to 1000 nM; in assay [2], 50 to 1000 nM; at Ephrin type-B receptor 4, 50 to 1000 nM.

Take `CCNC(=NC#N)N1CCOC(COc2cc3ncnc(Nc4ccc(Cl)c(Cl)c4)c3cc2OC)C1` (centres undefined): the IC50 in assay [1] was 50 to 1000 nM; at Ephrin type-A receptor 2, 50 to 1000 nM; in assay [2], less than 50 nM; at Ephrin type-B receptor 4, less than 50 nM.

With `COc1cc2c(Nc3ccc(Br)c(Cl)c3)ncnc2cc1OCC1CN(C)CCO1` (centres undefined), the IC50 in assay [1] was less than 50 nM; on Ephrin type-A receptor 2, less than 50 nM; in assay [2] it was 50 to 1000 nM; on Ephrin type-B receptor 4, less than 50 nM.

As to `COc1cc2c(Nc3ccc(Cl)c(Cl)c3)ncnc2cc1OCC1CN(C(=O)c2c(C)noc2C)CCO1` (centres undefined), the IC50 was 50 to 1000 nM in assay [1], 50 to 1000 nM on Ephrin type-A receptor 2, less than 50 nM in assay [2] and less than 50 nM on Ephrin type-B receptor 4.

As to `COc1cc2c(Nc3cc(F)c(Br)cc3F)ncnc2cc1OCC1CN(C)CCO1` (centres undefined), the IC50 in assay [1] was less than 50 nM; at Ephrin type-A receptor 2, 50 to 1000 nM; in assay [2] it was 50 to 1000 nM; at Ephrin type-B receptor 4, 50 to 1000 nM.

As to `COc1cc2c(Nc3cc(F)c(Br)c(F)c3)ncnc2cc1OCC1CN(C)CCO1` (centres undefined), the IC50 was less than 50 nM in assay [1], 50 to 1000 nM on Ephrin type-A receptor 2, 50 to 1000 nM in assay [2] and 50 to 1000 nM on Ephrin type-B receptor 4.

On to `COc1cc2c(Nc3ccc(Cl)c(Cl)c3)ncnc2cc1OCC1CN(C(C)=O)CCCO1` (centres undefined), for which the IC50 in assay [1] is 50 to 1000 nM; at Ephrin type-A receptor 2 it was 50 to 1000 nM; in assay [2], less than 50 nM; on Ephrin type-B receptor 4 it was less than 50 nM.

`COc1cc2c(Nc3ccc(Cl)c(Cl)c3)ncnc2cc1OCCC1CN(C)C(C)(C)CO1` (centres undefined): the concentration for half-maximal inhibition (IC50) (in assay [1]; at Ephrin type-A receptor 2; in assay [2]; at Ephrin type-B receptor 4) was 50 to 1000 nM each time.

`CC(C)Oc1cc2c(Nc3ccc(Cl)c(Cl)c3)ncnc2cc1OCC1CNCCO1` (centres undefined): the IC50 (in assay [1]; at Ephrin type-A receptor 2; in assay [2]; on Ephrin type-B receptor 4) was less than 50 nM each time.

As for `COc1cc2c(Nc3ccc(Cl)c(Cl)c3)ncnc2cc1OCCC1CNC(C)(C)CO1` (centres undefined), the IC50 (in assay [1]; on Ephrin type-A receptor 2; in assay [2]; on Ephrin type-B receptor 4) was 50 to 1000 nM each time.

For `COc1cc2c(Nc3cc(Cl)c(Cl)cc3F)ncnc2cc1OCC1CN(C)CCO1` (centres undefined), the half-maximal inhibitory concentration (IC50) in assay [1] is 50 to 1000 nM; on Ephrin type-A receptor 2 it was 50 to 1000 nM; in assay [2], 50 to 1000 nM; at Ephrin type-B receptor 4, less than 50 nM.

For the molecule `COc1cc2c(Nc3ccc(Cl)c(Cl)c3)ncnc2cc1OCC1CN(C(=O)c2cccnc2Cl)CCO1` (centres undefined), the IC50 in assay [1] is less than 50 nM; at Ephrin type-A receptor 2 it was 50 to 1000 nM; in assay [2], less than 50 nM; on Ephrin type-B receptor 4, less than 50 nM.

As for `COc1cc2c(Nc3ccc(Cl)c(Cl)c3)ncnc2cc1OCC1CN(/C(=N/C#N)N2CCCC2)CCO1` (centres undefined), the IC50 in assay [1] was 50 to 1000 nM; on Ephrin type-A receptor 2 it was less than 50 nM; in assay [2], less than 50 nM; on Ephrin type-B receptor 4, less than 50 nM.

For the molecule `CCC(=O)N1CCOC(COc2cc3ncnc(Nc4ccc(Cl)c(Cl)c4)c3cc2OC)C1` (centres undefined), the half-maximal inhibitory concentration (IC50) was 50 to 1000 nM in assay [1], 50 to 1000 nM on Ephrin type-A receptor 2, less than 50 nM in assay [2] and less than 50 nM at Ephrin type-B receptor 4.

Turning to `COc1cc2c(Nc3ccc(Br)c(Cl)c3Cl)ncnc2cc1OCC1CN(C)CCO1` (centres undefined), the IC50 in assay [1] is 50 to 1000 nM; at Ephrin type-A receptor 2, 50 to 1000 nM; in assay [2], 50 to 1000 nM; on Ephrin type-B receptor 4 it was less than 50 nM.
